Consider four molecules from BindingDB's records for doi:10.1016/j.bmcl.2006.09.026 (Mediquest Therapeutics, 2006).

The target in this experiment is Transcription factor p65 (Human, UniProt Q04206). Kind of experiment: Inhibition of NF-kappaB in human HEK293 cells.
Sequence of Transcription factor p65 (Q04206 whole entry): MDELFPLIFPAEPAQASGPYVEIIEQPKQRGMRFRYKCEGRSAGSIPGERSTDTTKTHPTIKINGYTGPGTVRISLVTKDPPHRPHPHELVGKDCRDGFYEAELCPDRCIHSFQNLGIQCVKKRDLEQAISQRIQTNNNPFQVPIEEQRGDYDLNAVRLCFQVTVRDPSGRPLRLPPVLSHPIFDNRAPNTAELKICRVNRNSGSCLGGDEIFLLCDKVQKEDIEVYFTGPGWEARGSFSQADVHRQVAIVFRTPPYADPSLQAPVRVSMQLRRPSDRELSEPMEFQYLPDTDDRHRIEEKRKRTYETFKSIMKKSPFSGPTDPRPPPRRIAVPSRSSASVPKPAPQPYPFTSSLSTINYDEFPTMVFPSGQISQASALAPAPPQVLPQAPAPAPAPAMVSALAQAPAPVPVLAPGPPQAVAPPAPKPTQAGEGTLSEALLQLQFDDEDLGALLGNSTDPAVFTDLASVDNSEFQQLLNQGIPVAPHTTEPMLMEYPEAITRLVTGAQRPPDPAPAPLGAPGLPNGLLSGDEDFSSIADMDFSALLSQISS
In general, IC50 refers to the concentration that inhibits the measured activity by half. In turn, `CCCCCCCCCCCCCCCCCCS(=O)(=O)NCCCNCCCCNCCCN` [N1-octadecanylsulfonyl-1,14-diamino-5,10-diazabutadecane] registered an IC50 of 2100 nM.
The result for `CCCCCCCCCCS(=O)(=O)NCCCNCCCCNCCCN` [N-(3-(4-(3-aminopropylamino)butylamino)propyl)decane-1-sulfonamide] reads 310 nM; that for `CCCCCCCCCCCCS(=O)(=O)NCCCNCCCCNCCCN` [N-(3-(4-(3-aminopropylamino)butylamino)propyl)dodecane-1-sulfonamide], 340 nM.
In turn, `CCCCCCCCCCCCCCCCS(=O)(=O)NCCCNCCCCNCCCN` [N-(3-(4-(3-aminopropylamino)butylamino)propyl)hexadecane-1-sulfonamide] displayed an IC50 of 230 nM.
